Experimental data from patent US5521196A, “5-HT1F agonists for the treatment of migraine” (Eli Lilly and Company, priority 1994, dated 1996).
Where a name gives a salt, the structure may show the parent alone.

Biological target: T1, 5-HT1F receptor (Homo sapiens, UniProt P30939)
T1 sequence (P30939 1-366): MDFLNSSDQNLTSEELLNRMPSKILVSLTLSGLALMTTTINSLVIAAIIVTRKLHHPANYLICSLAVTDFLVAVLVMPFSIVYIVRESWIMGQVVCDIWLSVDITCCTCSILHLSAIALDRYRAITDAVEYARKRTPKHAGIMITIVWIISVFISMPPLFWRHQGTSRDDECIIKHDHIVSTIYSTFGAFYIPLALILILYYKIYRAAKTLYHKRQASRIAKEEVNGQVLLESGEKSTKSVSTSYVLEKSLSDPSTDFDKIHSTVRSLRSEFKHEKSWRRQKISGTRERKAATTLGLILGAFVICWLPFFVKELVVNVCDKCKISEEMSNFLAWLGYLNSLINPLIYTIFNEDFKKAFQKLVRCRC
Test: biochemical
Settings: Table I; displacement of 4.5-5.5 nM [3H]5-HT, 37° C., 30 minutes; read-out: 5-HT1F BINDING Ki

Row | SMILES | Ki
1 | Clc1ccc2[nH]cc(C3CCN(CCc4cnn(-c5ccc(I)cc5)c4)CC3)c2c1 [Example 38, 5-chloro-3-<1-<2-<1-(4-iodophenyl)-1H-pyrazol-4-yl>ethyl>-4-piperidinyl>-1H-indole oxalate] | 77.4 nM
2 | Brc1ccc2[nH]cc(C3CCN(CCc4cnn(-c5ccccc5)c4)CC3)c2c1 [Example 26, 5-bromo-3-<1-<2-<1-phenyl-1H-pyrazol-4-yl>ethyl>-4-piperidinyl>-1H-indoleoxalate] | 13.8 nM
3 | Fc1ccc(-n2cc(CCN3CCC(c4c[nH]c5ccc(Cl)cc45)CC3)cn2)cc1 [Example 31, 5-chloro-3-<1-<2-<1-(4-fluorophenyl)-1H-pyrazol-4-yl>ethyl>-4-piperidinyl>- 1H-indole oxalate] | 11.5 nM
4 | Fc1ccc2[nH]cc(C3CCN(CCc4cnn(C5CCCCC5)c4)CC3)c2c1 [Example 17, 5-fluoro-3-<1-<2-<1-cyclohexyl-1H-pyrazol-4-yl>ethyl>-4-piperidinyl>-1H-indole oxalate] | 33.2 nM
5 | Fc1cccc(-n2cc(CCN3CCC(c4c[nH]c5ccc(Cl)cc45)CC3)cn2)c1 [Example 30, 5-chloro-3-<1-<2-<1-(3-fluorophenyl)-1H-pyrazol-4-yl>ethyl>-4-piperidinyl>- 1H-indole oxalate] | 51 nM
6 | Clc1ccc(-n2cc(CCN3CCC(c4c[nH]c5ccc(Cl)cc45)CC3)cn2)cc1 [Example 34, 5-chloro-3-<1-<2-<1-(4-chlorophenyl)-1H-pyrazol-4-yl>ethyl>-4-piperidinyl>- 1H-indole] | 161 nM
7 | Clc1cccc(-n2cc(CCN3CCC(c4c[nH]c5ccc(Cl)cc45)CC3)cn2)c1 [Example 33, 5-chloro-3-<1-<2-<1-(3-chlorophenyl)-1H-pyrazol-4-yl>ethyl>-4-piperidinyl>- 1H-indole oxalate] | 85.5 nM
8 | Clc1ccc2[nH]cc(C3CCN(CCCc4cn[nH]c4)CC3)c2c1 [Example 54, 5-chloro-3-<1-<3-<1H-pyrazol-4-yl>propyl>-4-piperidinyl>-1H-indole oxalate] | 42 nM
9 | Fc1ccc2[nH]cc(C3CCN(CCc4cccnc4)CC3)c2c1 [Example 47, 5-fluoro-3-<1-<2-<pyridin-3-yl>ethyl>-4-piperidinyl>-1H-indolehydrochloride monohydrate] | 115 nM
10 | Fc1ccccc1-n1cc(CCN2CCC(c3c[nH]c4ccc(Cl)cc34)CC2)cn1 [Example 29, 5-chloro-3-<1-<2-<1-(2-fluorophenyl)-1H-pyrazol-4-yl>ethyl>-4-piperidinyl>- 1H-indole] | 10.4 nM
11 | Cc1ccccc1-n1cc(CCN2CCC(c3c[nH]c4ccc(Cl)cc34)CC2)cn1 [Example 41, 5-chloro-3-<1-<2-<1-(2-methylphenyl)-1H-pyrazol-4-yl>ethyl>-4-piperidinyl>- 1H-indole oxalate] | 153 nM
12 | c1ccc2c(C3CCN(CCc4cnn(C5CCCCC5)c4)CC3)c[nH]c2c1 [Example 16, 3-<1-<2-<1-cyclohexyl-1H-pyrazol-4-yl>ethyl>-4-piperidinyl>-1H-indoleoxalate] | 43.8 nM
13 | Clc1ccc2[nH]cc(C3CCN(CCc4cnn(CC5CC5)c4)CC3)c2c1 [Example 21, 5-chloro-3-<1-<2-<1-cyclopropylmethyl-1H-pyrazol-4-yl>ethyl>-4-piperidinyl>-1H-indole hydrochloride] | 14.5 nM
14 | Fc1ccc2[nH]cc(C3CCN(CCc4cnn(Cc5ccccc5)c4)CC3)c2c1 [Example 22, 5-fluoro-3-<1-<2-<1-benzyl-1H-pyrazol-4-yl>ethyl>-4-piperidinyl>-1H-indolehydrochloride] | 52.5 nM
15 | Cc1ccc(-n2cc(CCN3CCC(c4c[nH]c5ccc(Cl)cc45)CC3)cn2)cc1 [Example 43, 5-chloro-3-<1-<2-<1-(4-methylphenyl)-1H-pyrazol-4-yl>ethyl>-4-piperidinyl>- 1H-indole] | 37.7 nM

Other lines, results leading:

Row | Ki | SMILES
16 | 9.9 nM | COc1ccc2[nH]cc(C3CCN(CCc4cnn(C)c4)CC3)c2c1 [Example 5, 5-methoxy-3-<1-<2-<1-methyl-1H-pyrazol-4-yl>ethyl>-4-piperidinyl>-1H-indoleoxalate]
17 | 8.9 nM | Fc1ccc2[nH]cc(C3CCN(CCc4cnn(CC5CC5)c4)CC3)c2c1 [Example 20, 5-fluoro-3-<1-<2-<1-cyclopropylmethyl-1H-pyrazol-4-yl>ethyl>-4-piperidinyl>-1H-indole hydrochloride]
18 | 8.1 nM | Fc1ccc2[nH]cc(C3CCN(CCc4cn[nH]c4)CC3)c2c1 [Example 48, 5-fluoro-3-<1-<2-<1H-pyrazol-4-yl>ethyl>-4-piperidinyl>-1H-indoledihydrochloride]
19 | 6.9 nM | Clc1ccc2[nH]cc(C3CCN(CCc4cnn(-c5ccccc5)c4)CC3)c2c1 [Example 25, 5-chloro-3-<1-<2-<1-phenyl-1H-pyrazol-4-yl>ethyl>-4-piperidinyl>-1H-indoleoxalate]
20 | 6.2 nM | COc1ccc2[nH]cc(C3CCN(CCc4cnn(C(C)C)c4)CC3)c2c1 [Example 10, 5-methoxy-3-<1-<2-<1-(1-methylethyl)-1H-pyrazol-4-yl>ethyl>-4-piperidinyl>- 1H-indole oxalate]
21 | 6 nM | CCCn1cc(CCN2CCC(c3c[nH]c4ccc(F)cc34)CC2)cn1 [Example 13, 5-fluoro-3-<1-<2-<1-propyl-1H-pyrazol-4-yl>ethyl>-4-piperidinyl>-1H-indoleoxalate]
22 | 5.7 nM | Cn1cc(CCN2CCC(c3c[nH]c4ccccc34)CC2)cn1 [Example 1, 3-<1-<2-<1-methyl-1H-pyrazol-4-yl>ethyl>-4-piperidinyl>-1H-indolehydrochloride]
23 | 5.3 nM | Fc1ccc2[nH]cc(C3CCN(CCc4ccncc4)CC3)c2c1 [Example 46, 5-fluoro-3-<1-<2-<pyridin-4-yl>ethyl>-4-piperidinyl>-1H-indoledihydrochloride]
24 | 4.9 nM | CC(C)n1cc(CCN2CCC(c3c[nH]c4ccc(F)cc34)CC2)cn1 [Example 7, 5-fluoro-3-<1-<2-<1-(1-methylethyl)-1H-pyrazol-4-yl>ethyl>-4-piperidinyl>-1H-indole oxalate]
25 | 4.5 nM | CC(C)n1cc(CCN2CCC(c3c[nH]c4ccccc34)CC2)cn1 [Example 6, 3-<1-<2-<1-(1-methylethyl)-1H-pyrazol-4-yl>ethyl>-4-piperidinyl>-1H-indolehydrochloride]
26 | 4.4 nM | Oc1ccc2[nH]cc(C3CCN(CCc4cnn(C5CCCCC5)c4)CC3)c2c1 [Example 51, 5-hydroxy-3-<1-<2-<1-cyclohexyl-1H-pyrazol-4-yl>ethyl>-4-piperidinyl>-1H-indole oxalate]
27 | 4.3 nM | c1ccc(-n2cc(CCN3CCC(c4c[nH]c5ccccc45)CC3)cn2)cc1 [Example 23, 3-<1-<2-<1-phenyl-1H-pyrazol-4-yl>ethyl>-4-piperidinyl>-1H-indolehydrochloride]
28 | 1.7 nM | Cn1cc(CCN2CCC(c3c[nH]c4ccc(Cl)cc34)CC2)cn1 [Example 3, 5-chloro-3-<1-<2-<1-methyl-1H-pyrazol-4-yl>ethyl>-4-piperidinyl>-1H-indolehydrochloride]
29 | 1.4 nM | Cn1cc(CCN2CCC(c3c[nH]c4ccc(O)cc34)CC2)cn1 [Example 49, 5-hydroxy-3-<1-<2-<1-methyl-1H-pyrazol-4-yl>ethyl>-4-piperidinyl>-1H-indoleoxalate]

Same assay, conditions: read-out: 5-HT1F BINDING Ki

Row | Ki | SMILES
30 | 10.3 nM | CC(C)n1cc(CCN2CCC(c3c[nH]c4ccc(C(N)=O)cc34)CC2)cn1 [Example 11, 5-carboxamido-3-<1-<2-<1-(1-methylethyl)-1H-pyrazol-4-yl>ethyl>-4-piperidinyl>-1H-indole]
